Assay results taken from patent US12077503B2, “Substituted cyclic amides and their use as herbicides” (FMC CORPORATION, priority 2015, dated 2024).

How the values were obtained:
Assay type in all cases: in vivo
[1] = system: giant foxtail (Setaria faberi); assay: Test G Post-Emergence Protocol; conditions: Setaria faberi, post-emergence, 312 h, read-out: Foxtail, Giant damage rating; for pest or weed control at 15.625 g/ha: 15.625 g ai/ha, evaluated after 13 days (100=total damage to plant; 0=no damage to plant); for pest or weed control at 62.5 g/ha: 62.5 g ai/ha; for pest or weed control at 62.5 g/ha / pest or weed control at 250 g/ha: evaluated after 13 days, 100=total damage to plant, 0=no damage to plant; for pest or weed control at 250 g/ha: 250 g ai/ha
Outline: (§1)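 Damage was rated 13 days after treatment from 0 (none) to 100 (plant killed). Compound was applied as a spray at 15.625, 62.5 or 250 g/ha in 50:50 acetone/water containing 0.5% Tween 20, onto 8-day-old potted plants kept in a glasshouse (24/16 °C, 14 h light, 65% humidity).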

[2] = system: redroot pigweed (Amaranthus retroflexus); assay: Test G Post-Emergence Protocol; conditions: Amaranthus retroflexus, post-emergence, 312 h, read-out: Pigweed, Redroot damage rating; for pest or weed control at 15.625 g/ha: 15.625 g ai/ha, evaluated after 13 days (100=total damage to plant; 0=no damage to plant); for pest or weed control at 62.5 g/ha: 62.5 g ai/ha; for pest or weed control at 62.5 g/ha / pest or weed control at 250 g/ha: evaluated after 13 days, 100=total damage to plant, 0=no damage to plant; for pest or weed control at 250 g/ha: 250 g ai/ha
Outline: as §1

[3] = system: velvetleaf (Abutilon theophrasti); assay: Test G Post-Emergence Protocol; conditions: Abutilon theophrasti, post-emergence, 312 h, read-out: Velvetleaf damage rating; for pest or weed control at 15.625 g/ha: 15.625 g ai/ha, evaluated after 13 days (100=total damage to plant; 0=no damage to plant); for pest or weed control at 62.5 g/ha: 62.5 g ai/ha; for pest or weed control at 62.5 g/ha / pest or weed control at 250 g/ha: evaluated after 13 days, 100=total damage to plant, 0=no damage to plant; for pest or weed control at 250 g/ha: 250 g ai/ha
Outline: as §1

corn (Zea mays) [4] = assay: Test G Post-Emergence Protocol; conditions: Zea mays, post-emergence, 312 h, read-out: Corn damage rating; for plant injury at 15.625 g/ha: 15.625 g ai/ha, evaluated after 13 days (100=total damage to plant; 0=no damage to plant); for plant injury at 62.5 g/ha: 62.5 g ai/ha; for plant injury at 62.5 g/ha / plant injury at 250 g/ha: evaluated after 13 days, 100=total damage to plant, 0=no damage to plant; for plant injury at 250 g/ha: 250 g ai/ha
Outline: as §1

[5] = system: barnyardgrass (Echinochloa crus-galli); assay: Test G Post-Emergence Protocol; conditions: Echinochloa crus-galli, post-emergence, 312 h, read-out: Barnyardgrass damage rating; for pest or weed control at 15.625 g/ha: 15.625 g ai/ha, evaluated after 13 days (100=total damage to plant; 0=no damage to plant); for pest or weed control at 62.5 g/ha: 62.5 g ai/ha; for pest or weed control at 62.5 g/ha / pest or weed control at 250 g/ha: evaluated after 13 days, 100=total damage to plant, 0=no damage to plant; for pest or weed control at 250 g/ha: 250 g ai/ha
Outline: as §1

[6] = system: ivy-leaved morning glory (Ipomoea hederacea); assay: Test G Post-Emergence Protocol; conditions: Ipomoea, post-emergence, 312 h, read-out: Morningglory, Ivy-leaved damage rating; for pest or weed control at 15.625 g/ha: 15.625 g ai/ha, evaluated after 13 days (100=total damage to plant; 0=no damage to plant); for pest or weed control at 62.5 g/ha: 62.5 g ai/ha; for pest or weed control at 62.5 g/ha / pest or weed control at 250 g/ha: evaluated after 13 days, 100=total damage to plant, 0=no damage to plant; for pest or weed control at 250 g/ha: 250 g ai/ha
Outline: as §1

[7] = system: giant foxtail (Setaria faberi); assay: Test G Pre-Emergence Protocol; conditions: Setaria faberi, pre-emergence, 312 h, evaluated after 13 days; for pest or weed control at 15.625 g/ha: 15.625 g ai/ha; for pest or weed control at 15.625 g/ha / pest or weed control at 250 g/ha: read-out: Foxtail, Giant damage rating (100=total damage to plant; 0=no damage to plant); for pest or weed control at 62.5 g/ha: 62.5 g ai/ha, 100=total damage to plant, 0=no damage to plant, read-out: Foxtail, Giant damage rating; for pest or weed control at 250 g/ha: 250 g ai/ha
Outline: (§2)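 Herbicidal effect was rated 13 days post-application on a scale where 100 equals total damage. Spraying took place the day after sowing, using 15.625, 62.5 or 250 g/ha of compound in a 50:50 acetone/water solution with 0.5% Tween 20.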

[8] = system: redroot pigweed (Amaranthus retroflexus); assay: Test G Pre-Emergence Protocol; conditions: Amaranthus retroflexus, pre-emergence, 312 h, evaluated after 13 days; for pest or weed control at 15.625 g/ha: 15.625 g ai/ha; for pest or weed control at 15.625 g/ha / pest or weed control at 250 g/ha: read-out: Pigweed, Redroot damage rating (100=total damage to plant; 0=no damage to plant); for pest or weed control at 62.5 g/ha: 62.5 g ai/ha, 100=total damage to plant, 0=no damage to plant, read-out: Pigweed, Redroot damage rating; for pest or weed control at 250 g/ha: 250 g ai/ha
Outline: as §2

[9] = system: velvetleaf (Abutilon theophrasti); assay: Test G Pre-Emergence Protocol; conditions: Abutilon theophrasti, pre-emergence, 312 h, evaluated after 13 days; for pest or weed control at 15.625 g/ha: 15.625 g ai/ha; for pest or weed control at 15.625 g/ha / pest or weed control at 250 g/ha: read-out: Velvetleaf damage rating (100=total damage to plant; 0=no damage to plant); for pest or weed control at 62.5 g/ha: 62.5 g ai/ha, 100=total damage to plant, 0=no damage to plant, read-out: Velvetleaf damage rating; for pest or weed control at 250 g/ha: 250 g ai/ha
Outline: as §2

corn (Zea mays) [10] = assay: Test G Pre-Emergence Protocol; conditions: Zea mays, pre-emergence, 312 h, evaluated after 13 days; for plant injury at 15.625 g/ha: 15.625 g ai/ha; for plant injury at 15.625 g/ha / plant injury at 250 g/ha: read-out: Corn damage rating (100=total damage to plant; 0=no damage to plant); for plant injury at 62.5 g/ha: 62.5 g ai/ha, 100=total damage to plant, 0=no damage to plant, read-out: Corn damage rating; for plant injury at 250 g/ha: 250 g ai/ha
Outline: as §2

[11] = system: barnyardgrass (Echinochloa crus-galli); assay: Test G Pre-Emergence Protocol; conditions: Echinochloa crus-galli, pre-emergence, 312 h, evaluated after 13 days; for pest or weed control at 15.625 g/ha: 15.625 g ai/ha; for pest or weed control at 15.625 g/ha / pest or weed control at 250 g/ha: read-out: Barnyardgrass damage rating (100=total damage to plant; 0=no damage to plant); for pest or weed control at 62.5 g/ha: 62.5 g ai/ha, 100=total damage to plant, 0=no damage to plant, read-out: Barnyardgrass damage rating; for pest or weed control at 250 g/ha: 250 g ai/ha
Outline: as §2

[12] = system: ivy-leaved morning glory (Ipomoea hederacea); assay: Test G Pre-Emergence Protocol; conditions: Ipomoea, pre-emergence, 312 h, evaluated after 13 days; for pest or weed control at 15.625 g/ha: 15.625 g ai/ha; for pest or weed control at 15.625 g/ha / pest or weed control at 250 g/ha: read-out: Morningglory, Ivy-leaved damage rating (100=total damage to plant; 0=no damage to plant); for pest or weed control at 62.5 g/ha: 62.5 g ai/ha, 100=total damage to plant, 0=no damage to plant, read-out: Morningglory, Ivy-leaved damage rating; for pest or weed control at 250 g/ha: 250 g ai/ha
Outline: as §2

SMILES | pest or weed control at 15.625 g/ha [1] [%] | pest or weed control at 62.5 g/ha [1] [%] | pest or weed control at 250 g/ha [1] [%] | pest or weed control at 15.625 g/ha [2] [%] | pest or weed control at 62.5 g/ha [2] [%] | pest or weed control at 250 g/ha [2] [%] | pest or weed control at 15.625 g/ha [3] [%] | pest or weed control at 62.5 g/ha [3] [%] | pest or weed control at 250 g/ha [3] [%] | plant injury at 15.625 g/ha (corn (Zea mays) [4]) [%] | plant injury at 62.5 g/ha (corn (Zea mays) [4]) [%] | plant injury at 250 g/ha (corn (Zea mays) [4]) [%] | pest or weed control at 15.625 g/ha [5] [%] | pest or weed control at 62.5 g/ha [5] [%] | pest or weed control at 250 g/ha [5] [%] | pest or weed control at 15.625 g/ha [6] [%] | pest or weed control at 62.5 g/ha [6] [%] | pest or weed control at 250 g/ha [6] [%] | pest or weed control at 15.625 g/ha [7] [%] | pest or weed control at 62.5 g/ha [7] [%] | further results
CN1C[C@H](c2ccc(C(F)(F)F)cc2)[C@@H](C(=O)Nc2ccc3ncccc3n2)C1=O (racemic) [Compound 1833] | 0 | 0 | 0 | 0 | 0 | 0 | 0 | 0 | 0 | 0 | 0 | 0 | 0 | 0 | 0 | 0 | 0 | 0 | 0 | 0 | pest or weed control at 250 g/ha [7]: 0%; pest or weed control at 15.625 g/ha [8]: 0%; pest or weed control at 62.5 g/ha [8]: 0%; pest or weed control at 250 g/ha [8]: 0%; pest or weed control at 15.625 g/ha [9]: 0%; pest or weed control at 62.5 g/ha [9]: 0%; pest or weed control at 250 g/ha [9]: 0%; plant injury at 15.625 g/ha (corn (Zea mays) [10]): 0%; plant injury at 62.5 g/ha (corn (Zea mays) [10]): 0%; plant injury at 250 g/ha (corn (Zea mays) [10]): 0%; pest or weed control at 15.625 g/ha [11]: 0%; pest or weed control at 62.5 g/ha [11]: 0%; pest or weed control at 250 g/ha [11]: 0%; pest or weed control at 15.625 g/ha [12]: 0%; pest or weed control at 62.5 g/ha [12]: 0%; pest or weed control at 250 g/ha [12]: 0%
Cc1c(F)cccc1NC(=O)[C@@H]1C(=O)N(C)C[C@H]1c1cccc(C(C)(C)O)c1 (racemic) [Compound 1819] | 0 | 40 | 80 | 0 | 0 | 10 | 0 | 0 | 0 | 0 | 0 | 20 | 0 | 20 | 80 | 0 | 0 | 50 | 20 | 80 | pest or weed control at 250 g/ha [7]: 90%; pest or weed control at 15.625 g/ha [8]: 0%; pest or weed control at 62.5 g/ha [8]: 0%; pest or weed control at 250 g/ha [8]: 20%; pest or weed control at 15.625 g/ha [9]: 0%; pest or weed control at 62.5 g/ha [9]: 0%; pest or weed control at 250 g/ha [9]: 10%; plant injury at 15.625 g/ha (corn (Zea mays) [10]): 0%; plant injury at 62.5 g/ha (corn (Zea mays) [10]): 0%; plant injury at 250 g/ha (corn (Zea mays) [10]): 60%; pest or weed control at 15.625 g/ha [11]: 0%; pest or weed control at 62.5 g/ha [11]: 60%; pest or weed control at 250 g/ha [11]: 90%; pest or weed control at 15.625 g/ha [12]: 0%; pest or weed control at 62.5 g/ha [12]: 0%; pest or weed control at 250 g/ha [12]: 0%
COc1cc(Cl)cc(C2CN(C)C(=O)C2C(=O)Nc2cccc(F)c2F)c1 (stereo not drawn) [Compound 1690] | 80 | 80 | 90 | 0 | 20 | 40 | 0 | 20 | 40 | 10 | 70 | 80 | 70 | 80 | 90 | 20 | 70 | 60 | 70 | 80 | pest or weed control at 250 g/ha [7]: 90%; pest or weed control at 15.625 g/ha [8]: 0%; pest or weed control at 62.5 g/ha [8]: 0%; pest or weed control at 250 g/ha [8]: 20%; pest or weed control at 15.625 g/ha [9]: 0%; pest or weed control at 62.5 g/ha [9]: 0%; pest or weed control at 250 g/ha [9]: 30%; plant injury at 15.625 g/ha (corn (Zea mays) [10]): 0%; plant injury at 62.5 g/ha (corn (Zea mays) [10]): 20%; plant injury at 250 g/ha (corn (Zea mays) [10]): 70%; pest or weed control at 15.625 g/ha [11]: 50%; pest or weed control at 62.5 g/ha [11]: 80%; pest or weed control at 250 g/ha [11]: 90%; pest or weed control at 15.625 g/ha [12]: 0%; pest or weed control at 62.5 g/ha [12]: 0%; pest or weed control at 250 g/ha [12]: 0%
